Measured values reported in US11945822B2, “Pyrazolo-triazine and/or pyrazolo-pxrimidine derivatives as selective inhibitor of cyclin dependent kinase” (QURIENT CO., LTD., priority 2018, dated 2024).
Where two headings read alike, the source gives them in different places.

Legend:
CDK5/p25 = target: T1, CDK5/p25 (Homo sapiens, UniProt Q00535); experiment: Enzymatic assay for CDK5 (FRET based LANCE Ultra kinase assay); assay type: biochemical
T1 construct: purchased Invitrogen PR8543B
Protocol: (§1) Enzymatic Binding Assay Protocol for CDK1, CDK2, CDK5 and CDK7
(§2) Inhibition activity of the respective compound on CDK kinase under Km value of ATP was tested in FRET based The LANCE® Ultra kinase assay (Perkin Elmer), which uses a ULight™-labeled peptide substrate and an appropriate Europium-labeled anti-phospho-antibody. Test compounds were made with DMSO solutions, and then 4-fold serial dilutions for 8 doses were prepared using automated liquid handler (POD810, LABCYTE) and 80 nL/well of diluted compound solutions were added into the 384-well plates (Greiner, Cat #784075). And then 68 nM of ULight-MBP peptide (Perkin Elmer, Cat #TRF0109-M) and 5 ul/well of ATP (Sigma, Cat #A7699) were added to the plate. After 1 min centrifugation at 1000 rpm, Purified CDKs/Cyclin complex were added following concentrations respectively. 24 uM for CDK1/Cyclin B (Invitrogen, Cat #PR4768C), 22 uM for CDK2/Cyclin A (Invitrogen, Cat #PV6290), 10 uM for CDK5/p25 (Invitrogen, Cat #PR8543B) and […] for CDK7/Cyclin H/MNAT1 (Invitrogen, Cat #PR6749B) were added to the each corresponding plate for CDK1, CDK2, CDK5 and CDK7. Incubate at 23° C. for 60 min and then Eu-labeled anti-phospho-Myelin Basic Protein (PE, Cat #TRF0201-M) and EDTA (Invitrogen, Cat #15575038) mixture in Lance Detection Buffer (Perkin Elmer, Cat #CR97100) was added in each well. After additional incubation at 23° C. for 60 min, test articles were measured the fluorescence using Envision leader (Perkin Elmer, USA) [Laser as excitation light; […] as the first and the second emission filter]. Data was analyzed using XL Fit software.

H460 = experiment: Cellular H460 viability assay (CellTiter-Glo, 72 hours); assay type: cell-based; settings: Homo sapiens, NCI-H460
Protocol: All cell lines were routinely tested for mycoplasma.
The effect of the CDK7 inhibitor to inhibit the growth of target cancer cells was evaluated through the 72 hours time period of viability assay. Briefly, the candidate cell line ware plated in 96 well plate at the following density of cells respectively. […] DMSO solvent without compound served as a control and final DMSO concentration less than 0.1%. After 72 hours of incubation at 37° C., 5% CO2 incubator, cells were analyzed for the viability using the CellTiter-Glo Luminescent Cell Viability Assay (Promega, Cat #G7570). All viability assays were performed in duplicate and Luminescence was read using an Envision (Perkin Elmer, USA). Data was analyzed using XLfit software.

CDK1/Cyclin B = target: T2, CDK1/Cyclin B (Homo sapiens, UniProt P06493); experiment: Enzymatic assay for CDK1 (FRET based LANCE Ultra kinase assay); assay type: biochemical
T2 construct: purchased Invitrogen PR4768C
Protocol: as §1, §2

CDK2/Cyclin A = target: T3, CDK2/Cyclin A (Homo sapiens, UniProt P24941); experiment: Enzymatic assay for CDK2 (FRET based LANCE Ultra kinase assay); assay type: biochemical
T3 construct: purchased Invitrogen PV6290
Protocol: as §1, §2

CDK7/Cyclin H/MNAT1 = target: T4, CDK7/Cyclin H/MNAT1 (Homo sapiens, UniProt P50613); experiment: Enzymatic assay for CDK7 (FRET based LANCE Ultra kinase assay); assay type: biochemical
T4 construct: purchased Invitrogen PR6749B
Protocol: as §1
Inhibition activity of the respective compound on CDK kinase under Km value of ATP was tested in FRET based The LANCE® Ultra kinase assay (Perkin Elmer), which uses a ULight™-labeled peptide substrate and an appropriate Europium-labeled anti-phospho-antibody. […] After 1 min centrifugation at 1000 rpm, Purified CDKs/Cyclin complex were added following concentrations respectively. […] Data was analyzed using XL Fit software.

[1] = read-out: CDK5 enzymatic activity (IC50 range)
[2] = read-out: CDK1 enzymatic activity (IC50 range)
[3] = read-out: CDK2 enzymatic activity (IC50 range)
[4] = read-out: CDK7 enzymatic activity (IC50 range)

T2 sequence (P06493 whole entry): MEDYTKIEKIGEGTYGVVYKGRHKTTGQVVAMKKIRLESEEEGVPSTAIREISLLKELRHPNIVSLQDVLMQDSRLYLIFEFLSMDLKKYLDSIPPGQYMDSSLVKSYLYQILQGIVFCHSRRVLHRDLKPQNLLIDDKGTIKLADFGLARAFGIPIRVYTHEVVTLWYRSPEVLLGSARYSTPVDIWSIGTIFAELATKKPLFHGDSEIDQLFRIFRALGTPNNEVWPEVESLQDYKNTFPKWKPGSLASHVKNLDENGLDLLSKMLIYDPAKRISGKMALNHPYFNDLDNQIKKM
T2 sequence (P14635 whole entry partner): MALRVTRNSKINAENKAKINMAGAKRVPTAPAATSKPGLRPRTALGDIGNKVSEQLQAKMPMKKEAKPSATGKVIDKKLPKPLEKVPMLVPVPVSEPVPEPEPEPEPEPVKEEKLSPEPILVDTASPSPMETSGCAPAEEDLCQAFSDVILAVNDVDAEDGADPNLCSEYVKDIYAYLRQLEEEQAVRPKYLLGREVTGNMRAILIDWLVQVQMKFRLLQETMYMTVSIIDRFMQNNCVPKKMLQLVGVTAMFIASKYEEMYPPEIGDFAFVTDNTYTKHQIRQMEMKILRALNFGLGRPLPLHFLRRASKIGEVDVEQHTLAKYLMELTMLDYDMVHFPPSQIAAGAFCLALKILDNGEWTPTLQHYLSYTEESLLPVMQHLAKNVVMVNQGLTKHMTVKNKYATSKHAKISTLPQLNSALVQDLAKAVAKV
T4 sequence (P50613 whole entry): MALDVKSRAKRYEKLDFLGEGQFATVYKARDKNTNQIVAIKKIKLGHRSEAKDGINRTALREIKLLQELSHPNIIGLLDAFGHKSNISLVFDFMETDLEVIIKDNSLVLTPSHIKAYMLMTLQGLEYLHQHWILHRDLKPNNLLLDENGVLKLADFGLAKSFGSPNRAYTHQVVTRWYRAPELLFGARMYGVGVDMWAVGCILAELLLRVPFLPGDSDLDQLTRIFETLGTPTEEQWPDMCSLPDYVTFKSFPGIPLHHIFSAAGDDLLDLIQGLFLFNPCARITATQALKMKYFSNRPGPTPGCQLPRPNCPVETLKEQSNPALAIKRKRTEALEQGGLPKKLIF
T4 sequence (P51946 whole entry partner): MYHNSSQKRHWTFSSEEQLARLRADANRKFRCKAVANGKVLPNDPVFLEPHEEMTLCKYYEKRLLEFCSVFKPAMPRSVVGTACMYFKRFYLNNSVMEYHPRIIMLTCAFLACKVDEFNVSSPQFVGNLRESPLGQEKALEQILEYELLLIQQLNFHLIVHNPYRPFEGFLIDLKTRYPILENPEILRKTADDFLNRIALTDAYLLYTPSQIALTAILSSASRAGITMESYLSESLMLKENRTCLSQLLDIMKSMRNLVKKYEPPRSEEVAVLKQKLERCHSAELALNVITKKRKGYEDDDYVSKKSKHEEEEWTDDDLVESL
T4 sequence (P51948 whole entry partner): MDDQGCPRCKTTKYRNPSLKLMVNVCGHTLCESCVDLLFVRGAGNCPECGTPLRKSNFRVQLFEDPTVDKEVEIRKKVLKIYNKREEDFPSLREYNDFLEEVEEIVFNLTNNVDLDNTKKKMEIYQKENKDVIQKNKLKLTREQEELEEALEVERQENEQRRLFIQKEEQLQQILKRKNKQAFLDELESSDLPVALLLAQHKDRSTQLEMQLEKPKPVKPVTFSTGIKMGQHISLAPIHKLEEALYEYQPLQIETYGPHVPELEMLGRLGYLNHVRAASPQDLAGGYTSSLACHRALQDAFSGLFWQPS
T1 sequence (Q00535 whole entry): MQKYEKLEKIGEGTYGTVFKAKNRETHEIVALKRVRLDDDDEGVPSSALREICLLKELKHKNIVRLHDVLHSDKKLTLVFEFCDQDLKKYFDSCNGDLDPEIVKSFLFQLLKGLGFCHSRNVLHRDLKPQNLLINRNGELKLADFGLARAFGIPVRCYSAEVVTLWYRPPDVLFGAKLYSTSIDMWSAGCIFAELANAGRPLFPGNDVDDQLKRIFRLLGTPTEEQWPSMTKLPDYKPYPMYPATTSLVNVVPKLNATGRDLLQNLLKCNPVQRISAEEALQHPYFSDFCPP
T1 sequence (Q15078 99-307 partner limits assumed): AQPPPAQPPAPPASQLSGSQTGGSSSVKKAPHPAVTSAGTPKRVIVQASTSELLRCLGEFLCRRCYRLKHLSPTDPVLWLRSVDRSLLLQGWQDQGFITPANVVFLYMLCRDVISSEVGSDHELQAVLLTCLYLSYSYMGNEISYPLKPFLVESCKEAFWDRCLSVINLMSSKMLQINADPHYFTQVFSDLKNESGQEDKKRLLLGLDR

| Structure (SMILES) | IC50 (CDK5/p25; [1]) | IC50 (H460) | IC50 (CDK1/Cyclin B; [2]) | IC50 (CDK2/Cyclin A; [3]) | CDK1/CDK7: Selectivity of CDK7 inhibition over CDK1 inhibition (CDK7/Cyclin H/MNAT1; CDK7 over CDK1) | CDK2/CDK7: Selectivity of CDK7 inhibition over CDK2 inhibition (CDK7/Cyclin H/MNAT1; CDK7 over CDK2) | CDK5/CDK7: Selectivity of CDK7 inhibition over CDK5 inhibition (CDK7/Cyclin H/MNAT1; CDK7 over CDK5) | IC50 (CDK7/Cyclin H/MNAT1; [4]) | IC50 (CDK5/p25; read-out: CDK5 enzymatic activity (IC50 activity range)) | IC50 (CDK1/Cyclin B; read-out: CDK1 enzymatic activity (IC50 activity range)) | IC50 (CDK2/Cyclin A; read-out: CDK2 enzymatic activity (IC50 activity range)) | CDK1/CDK7: Selectivity of CDK7 inhibition over CDK1 inhibition (CDK7/Cyclin H/MNAT1; CDK1/CDK7) | CDK2/CDK7: Selectivity of CDK7 inhibition over CDK2 inhibition (CDK7/Cyclin H/MNAT1; CDK2/CDK7) | CDK5/CDK7: Selectivity of CDK7 inhibition over CDK5 inhibition (CDK7/Cyclin H/MNAT1; CDK5/CDK7) | IC50 (CDK7/Cyclin H/MNAT1; read-out: CDK7 enzymatic activity (IC50 activity range)) |
| --- | --- | --- | --- | --- | --- | --- | --- | --- | --- | --- | --- | --- | --- | --- | --- |
| Cc1nc2c(CNc3nc(N4CCC(N)CC4)nc4c(C(C)C)cnn34)cccc2o1 [Compound 33] | < 100 nM | < 1000 nM | 100 to 1000 nM | 100 to 1000 nM | B (B=less than 200 fold, but greater than 20 fold) | B (B=less than 200 fold, but greater than 20 fold) | C (C=less than 20 fold) | < 100 nM |  |  |  |  |  |  |  |
| CC(C)c1cnn2c(NCc3ccccc3-n3cccn3)nc(-c3ccc(C4CCNCC4)cc3)nc12 [Compound 168] | 100 to 1000 nM |  | > 1000 nM | 100 to 1000 nM | A (A=greater than 200 fold) | B (B=less than 200 fold, but greater than 20 fold) | B (B=less than 200 fold, but greater than 20 fold) | < 100 nM |  |  |  |  |  |  |  |
| CC(C)c1cnn2c(NCc3ccccc3-n3cccn3)nc(C(=O)N3CCN(C)CC3)nc12 [Compound 7] |  | > 10000 nM |  |  |  |  |  |  |  |  |  |  |  |  |  |
| CC(C)c1cnn2c(NCc3cccc4cnn(C)c34)nc(N3CCC(N)CC3)nc12 [Compound 10] | < 100 nM | < 1000 nM | 100 to 1000 nM | 100 to 1000 nM | B (B=less than 200 fold, but greater than 20 fold) | B (B=less than 200 fold, but greater than 20 fold) | C (C=less than 20 fold) | < 100 nM |  |  |  |  |  |  |  |
| NC1CCN(c2nc(NCc3ccccc3-n3cccn3)n3ncc(Cl)c3n2)CC1 [Compound 29] |  | 1000 to 10000 nM |  |  |  |  |  |  |  |  |  |  |  |  |  |
| NC1CCN(c2nc(NCc3ccccc3-n3cccn3)n3ncc(C4CCCC4)c3n2)CC1 [Compound 12] | < 100 nM | < 1000 nM | 100 to 1000 nM | 100 to 1000 nM | B (B=less than 200 fold, but greater than 20 fold) | B (B=less than 200 fold, but greater than 20 fold) | C (C=less than 20 fold) | < 100 nM |  |  |  |  |  |  |  |
| CC(C)c1cnn2c(NCc3ccccc3-c3cc4cccc(NC(=O)N(C)C)c4[nH]3)nc(N3CCC(N)CC3)nc12 [Compound 149] | < 100 nM | < 1000 nM | 100 to 1000 nM | < 100 nM | B (B=less than 200 fold, but greater than 20 fold) | B (B=less than 200 fold, but greater than 20 fold) | C (C=less than 20 fold) | < 100 nM |  |  |  |  |  |  |  |
| CC(C)c1cnn2c(NCc3ccccc3-n3cccn3)nc([C@H]3CC[C@H](N)CC3)nc12 [Compound 25] | < 100 nM | < 1000 nM | 100 to 1000 nM | < 100 nM | B (B=less than 200 fold, but greater than 20 fold) | C (C=less than 20 fold) | C (C=less than 20 fold) | < 100 nM |  |  |  |  |  |  |  |
| CC(C)c1cnn2c(NCc3c[nH]c4ccccc34)nc(N3CCC(N)CC3)nc12 [Compound 28] | 100 to 1000 nM |  | > 1000 nM | 100 to 1000 nM | B (B=less than 200 fold, but greater than 20 fold) | B (B=less than 200 fold, but greater than 20 fold) | C (C=less than 20 fold) | < 100 nM |  |  |  |  |  |  |  |
| Cc1ccc(CNc2nc(N3CCC(N)CC3)nc3c(C(C)C)cnn23)cc1-n1cccn1 [Compound 65] | 100 to 1000 nM | 1000 to 10000 nM | > 1000 nM | > 1000 nM | B (B=less than 200 fold, but greater than 20 fold) | B (B=less than 200 fold, but greater than 20 fold) | C (C=less than 20 fold) | < 100 nM |  |  |  |  |  |  |  |
| CCCNC(=O)Nc1ccccc1CNc1nc(N2CCC(N)CC2)nc2c(C(C)C)cnn12 [Compound 11] | 100 to 1000 nM | < 1000 nM | > 1000 nM | 100 to 1000 nM | A (A=greater than 200 fold) | B (B=less than 200 fold, but greater than 20 fold) | B (B=less than 200 fold, but greater than 20 fold) | < 100 nM |  |  |  |  |  |  |  |
| CC(C)c1cnn2c(NCc3ccccc3Br)nc(N3CCC(N)CC3)nc12 [Compound 22] |  | < 1000 nM |  |  |  |  |  |  |  |  |  |  |  |  |  |
| CC(C)c1cnn2c(NCc3cccc4ncn(C)c34)nc(N3CCC(N)CC3)nc12 [Compound 16] | < 100 nM | < 1000 nM | 100 to 1000 nM | 100 to 1000 nM | B (B=less than 200 fold, but greater than 20 fold) | B (B=less than 200 fold, but greater than 20 fold) | C (C=less than 20 fold) | < 100 nM |  |  |  |  |  |  |  |
| N#Cc1cnn2c(NCc3ccccc3-n3cccn3)nc(N3CCC(N)CC3)nc12 [Compound 34] | 100 to 1000 nM | 1000 to 10000 nM | > 1000 nM | 100 to 1000 nM | B (B=less than 200 fold, but greater than 20 fold) | C (C=less than 20 fold) | C (C=less than 20 fold) | < 100 nM |  |  |  |  |  |  |  |
| CNC(=O)c1cccnc1CNc1nc(N2CCC(N)CC2)nc2c(C(C)(C)C)cnn12 [Compound 15] | > 1000 nM |  | > 1000 nM | > 1000 nM | A (A=greater than 200 fold) | A (A=greater than 200 fold) | B (B=less than 200 fold, but greater than 20 fold) | < 100 nM |  |  |  |  |  |  |  |
| CC(C)c1cnn2c(NCc3ccccc3-n3cccn3)nc(C(=O)NC3CCNC3)nc12 (racemic) [Compound 8] | > 1000 nM | > 10000 nM | > 1000 nM | > 1000 nM | B (B=less than 200 fold, but greater than 20 fold) | B (B=less than 200 fold, but greater than 20 fold) | C (C=less than 20 fold) | 100 to 1000 nM |  |  |  |  |  |  |  |
| CC(C)c1cnn2c(NCc3ccccc3-n3cccn3)nc(C3CCNCC3)nc12 [Compound 23] |  | < 1000 nM |  |  |  |  |  |  |  |  |  |  |  |  |  |
| Cc1cccc(-c2cc(C(C)(C)O)n(C)n2)c1CNc1nc(N2CCC(N)CC2)nc2c(C(C)C)cnn12 [Compound 259] |  |  |  |  |  |  |  |  | > 1000 nM | > 1000 nM | > 1000 nM | A (A=greater than 200 fold) | A (A=greater than 200 fold) | A (A=greater than 200 fold) | < 100 nM |
| CC(C)c1cnn2c(NCc3ccc(Cl)c(-n4cccn4)c3)nc(N3CCC(N)CC3)nc12 [Compound 67] | 100 to 1000 nM | 1000 to 10000 nM | > 1000 nM | 100 to 1000 nM | B (B=less than 200 fold, but greater than 20 fold) | C (C=less than 20 fold) | C (C=less than 20 fold) | < 100 nM |  |  |  |  |  |  |  |
